Among the data in patent US20200216417A1, “INHIBITORS OF FIBROBLAST ACTIVATION PROTEIN” (Praxis Biotech LLC, priority 2019, published 2020) are IC50 and inhibition values, retold here.

A word on the IC50: it is the concentration needed to halve the response being measured.

Where two headings read alike, the source gives them in different places.

Test [1] addresses T1, recombinant human DPPIV (rhDPPIV) (Homo sapiens, UniProt P27487).
T1 construct: purchased R&S system (so in the source)
Nature of the test: DPPIV enzymatic activity assay, H-Gly-Pro-pNA. It counts as biochemical.

Test [2] addresses T2, recombinant human PREP (rhPREP) (Homo sapiens, UniProt P48147).
T2 sequence (P48147 1-710): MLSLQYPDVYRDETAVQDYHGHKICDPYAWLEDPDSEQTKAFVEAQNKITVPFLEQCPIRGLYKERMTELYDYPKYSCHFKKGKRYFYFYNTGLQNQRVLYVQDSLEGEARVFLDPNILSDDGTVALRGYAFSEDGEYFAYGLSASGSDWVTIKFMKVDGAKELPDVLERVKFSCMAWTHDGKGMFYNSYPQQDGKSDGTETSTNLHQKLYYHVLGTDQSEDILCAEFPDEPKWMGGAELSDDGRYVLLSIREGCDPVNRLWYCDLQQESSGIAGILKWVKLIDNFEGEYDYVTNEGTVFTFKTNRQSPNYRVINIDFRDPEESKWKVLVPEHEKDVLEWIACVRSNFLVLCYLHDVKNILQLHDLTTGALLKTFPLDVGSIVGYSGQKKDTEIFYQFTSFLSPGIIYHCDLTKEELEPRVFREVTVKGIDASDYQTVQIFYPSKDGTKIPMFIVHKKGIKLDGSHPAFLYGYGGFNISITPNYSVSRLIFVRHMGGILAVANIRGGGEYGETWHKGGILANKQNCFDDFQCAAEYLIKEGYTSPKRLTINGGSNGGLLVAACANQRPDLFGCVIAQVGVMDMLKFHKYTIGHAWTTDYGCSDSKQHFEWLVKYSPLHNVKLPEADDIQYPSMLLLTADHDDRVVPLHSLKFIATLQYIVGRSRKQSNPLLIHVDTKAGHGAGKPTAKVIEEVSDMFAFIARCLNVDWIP
Nature of the test: PREP enzymatic activity assay, Z-Gly-Pro-AMC. The format is biochemical.

Test [3] has as its target T3, recombinant human FAPα (rhFAPα) (Homo sapiens, UniProt Q12884).
T3 construct: purchased R&S system (so in the source)
T3 sequence (Q12884 1-760): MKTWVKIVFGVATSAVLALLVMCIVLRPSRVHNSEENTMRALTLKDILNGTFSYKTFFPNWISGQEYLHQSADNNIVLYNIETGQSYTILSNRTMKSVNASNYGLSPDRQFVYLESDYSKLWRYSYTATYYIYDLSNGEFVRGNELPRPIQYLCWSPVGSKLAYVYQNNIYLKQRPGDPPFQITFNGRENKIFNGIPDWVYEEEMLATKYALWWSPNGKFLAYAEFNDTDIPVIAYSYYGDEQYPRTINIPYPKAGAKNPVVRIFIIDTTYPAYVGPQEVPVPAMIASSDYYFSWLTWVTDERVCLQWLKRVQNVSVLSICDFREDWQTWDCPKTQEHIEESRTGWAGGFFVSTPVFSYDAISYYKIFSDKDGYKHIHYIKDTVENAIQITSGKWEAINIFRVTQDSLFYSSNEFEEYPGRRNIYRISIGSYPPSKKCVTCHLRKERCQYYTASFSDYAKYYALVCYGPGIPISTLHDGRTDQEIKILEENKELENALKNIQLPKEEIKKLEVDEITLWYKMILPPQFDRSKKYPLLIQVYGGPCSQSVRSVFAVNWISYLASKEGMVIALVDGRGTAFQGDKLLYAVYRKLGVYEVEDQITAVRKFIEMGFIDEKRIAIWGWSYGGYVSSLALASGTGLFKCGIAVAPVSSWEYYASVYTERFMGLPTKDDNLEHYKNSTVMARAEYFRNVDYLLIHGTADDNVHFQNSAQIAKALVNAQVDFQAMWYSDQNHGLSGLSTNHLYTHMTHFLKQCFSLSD
Nature of the test: FAPα enzymatic exopeptidase (dipeptidase) activity assay, Z-Gly-Pro-AMC. It counts as biochemical.

Test [4] concerns the target T4, FAPα (Mus musculus, UniProt P97321).
T4 construct: from tissue; host or cells: C57BL/6 mouse plasma (EDTA)
T4 sequence (P97321 24-761 limits assumed): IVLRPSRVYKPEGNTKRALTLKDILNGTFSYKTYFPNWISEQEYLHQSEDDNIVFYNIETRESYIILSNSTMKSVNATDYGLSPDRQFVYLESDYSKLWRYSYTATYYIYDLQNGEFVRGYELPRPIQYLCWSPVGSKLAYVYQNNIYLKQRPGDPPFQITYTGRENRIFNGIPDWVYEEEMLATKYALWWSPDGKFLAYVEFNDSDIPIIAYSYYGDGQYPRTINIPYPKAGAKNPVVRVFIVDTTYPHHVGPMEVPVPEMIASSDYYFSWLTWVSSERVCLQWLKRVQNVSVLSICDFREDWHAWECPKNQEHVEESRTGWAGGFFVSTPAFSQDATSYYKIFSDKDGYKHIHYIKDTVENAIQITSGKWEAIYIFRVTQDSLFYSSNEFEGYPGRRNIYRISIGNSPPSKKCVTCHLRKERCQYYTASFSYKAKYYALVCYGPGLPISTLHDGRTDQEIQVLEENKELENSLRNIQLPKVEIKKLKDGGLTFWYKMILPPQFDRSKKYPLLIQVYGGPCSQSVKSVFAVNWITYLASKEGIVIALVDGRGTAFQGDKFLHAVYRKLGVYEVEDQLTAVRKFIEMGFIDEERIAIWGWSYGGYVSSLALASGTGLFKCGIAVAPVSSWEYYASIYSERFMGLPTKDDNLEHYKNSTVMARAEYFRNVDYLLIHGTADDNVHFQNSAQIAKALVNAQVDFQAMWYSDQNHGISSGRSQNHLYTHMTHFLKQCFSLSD
Nature of the test: FAPα enzymatic activity in mouse plasma (PRXS-AMC). To be noted: PRXS-AMC substrate, read-out: mouse plasma FAPα (PRXS-AMC) (exo IC50). It counts as biochemical, C57BL/6 mouse. How it is done: Approximately 500 μL of whole blood from one C57BL/6 mouse was harvested into BD Microtainer® tubes (K2) EDTA (#365974, Becton Dickinson and Co.) via terminal cardiac puncture. The blood sample was immediately centrifuged at approximately 9000 g at 4° C. for 5 minutes. Plasma was separated and stored at −80° C. in aliquots of 300 μL. To assay baseline FAPα enzymatic exopeptidase activity, 5 μL of thawed, plasma was diluted (1:5) with cFAP buffer (100 mM Tris-HCl, 400 mM NaCl, 50 mM salicylic acid, 1 mM EDTA, pH 7.5) and mixed with 35 μL of the same buffer before being pre-incubated with different concentrations of 10 μL of test compounds or DMSO vehicle for 15 minutes at 37° C. in 96-well black plates (Nunc, #237108). After pre-incubation, 50 μL of 200 μM PRXS-AMC were added to the mixture. The assay was performed for 1 hour at 37° C. protected from light. 7-Amino-4-Methylcoumarin (AMC) release was detected measuring fluorescence at an excitation wavelength of 380 nm and an emission wavelength of 460 nm using a Multifunction Microplate Reader (Synergy 4, Biotek). All measurements were carried out at least as a single point.

[5] abbreviates: exopeptidase inhibition at 1 μM test compound, Table 2, read-out: rhFAPα (% exo inh @ 1 μM).
The mark [6] stands for this setting: exopeptidase inhibition at 1 μM test compound, Table 3B, read-out: rhFAPα % exo inh @ 1 μM.
Where [7] appears, read: exopeptidase, Table 2, read-out: rhFAPα (exo IC50).
The mark [8] stands for this setting: exopeptidase, Table 3A, read-out: rhFAPα (exo IC50).
Where [9] appears, read: read-out: rhFAPα % exo inh @ 1 μM.
[10] abbreviates: read-out: rhFAPα (% exo inh @ 1 μM).

T1 sequence (P27487 whole entry): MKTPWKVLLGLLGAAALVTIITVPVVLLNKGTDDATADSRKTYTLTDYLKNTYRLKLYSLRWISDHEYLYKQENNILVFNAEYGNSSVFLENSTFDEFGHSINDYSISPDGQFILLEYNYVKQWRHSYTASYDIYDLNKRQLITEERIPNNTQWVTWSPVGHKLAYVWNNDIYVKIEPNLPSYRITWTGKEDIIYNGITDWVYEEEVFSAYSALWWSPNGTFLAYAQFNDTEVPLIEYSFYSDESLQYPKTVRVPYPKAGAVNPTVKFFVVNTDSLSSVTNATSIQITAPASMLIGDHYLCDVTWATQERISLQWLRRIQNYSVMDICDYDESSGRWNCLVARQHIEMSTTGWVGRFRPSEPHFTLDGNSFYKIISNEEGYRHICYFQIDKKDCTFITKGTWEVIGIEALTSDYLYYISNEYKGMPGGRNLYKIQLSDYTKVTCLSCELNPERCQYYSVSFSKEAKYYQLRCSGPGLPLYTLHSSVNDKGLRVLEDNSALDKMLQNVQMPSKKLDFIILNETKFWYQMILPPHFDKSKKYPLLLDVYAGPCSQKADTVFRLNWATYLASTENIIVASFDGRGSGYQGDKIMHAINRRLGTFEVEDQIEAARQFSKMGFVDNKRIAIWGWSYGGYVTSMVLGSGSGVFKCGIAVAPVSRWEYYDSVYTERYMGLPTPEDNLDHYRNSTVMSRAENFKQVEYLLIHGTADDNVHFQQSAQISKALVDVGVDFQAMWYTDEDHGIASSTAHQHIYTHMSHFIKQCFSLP

In the case of `N#C[C@@H]1CC(F)(F)CN1C(=O)CNC(=O)c1ccncc1NCc1ccc(F)cc1` [Compound 2, (S)—N-(2-(2-cyano-4,4-difluoropyrrolidin-1-yl)-2-oxoethyl)-3-((4-fluorobenzyl)amino)isonicotinamide], the concentration for half-maximal inhibition (IC50) is > 10 µM in test [1] (Table 3A); > 10 µM in test [1] (Table 3B); > 10 µM in test [2] (Table 3A); > 10 µM in test [2] (Table 3B); < 1000 nM in test [3] (Table 3B, read-out: rhFAP IC50); < 1000 nM in test [3] (setting [7]). The half-maximal inhibitory concentration (IC50) in test [3] (setting [8]) and in test [4] was < 1000 nM in each case. The inhibition at 1 µM in test [3] (setting [5]) and in test [3] (setting [6]) was > 50% each time.
`COc1ccc(C(=O)Nc2cnccc2C(=O)NCC(=O)N2CC(F)(F)C[C@H]2C#N)cc1` [Compound 3, (S)—N-(2-(2-cyano-4,4-difluoropyrrolidin-1-yl)-2-oxoethyl)-3-(4-methoxybenzamido)isonicotinamide]: the IC50 in test [1] (Table 3A) is 1 to 10 µM; in test [1] (Table 3B), 1 to 10 µM; in test [2] (Table 3A), > 10 µM; in test [2] (Table 3B) it was > 10 µM; in test [3] (Table 3B, read-out: rhFAP IC50), < 1000 nM; in test [3] (setting [7]), < 1000 nM. Further, the IC50 in test [3] (setting [8]) and in test [4] was < 1000 nM each time. Further, the inhibition at 1 µM in test [3] (setting [9]) and in test [3] (setting [10]) was > 50% in each case.
As to `N#C[C@@H]1CC(F)(F)CN1C(=O)CNC(=O)c1ccncc1NC(=O)COc1ccc(Cl)c(F)c1` [Compound 5, (S)-3-(2-(4-chloro-3-fluorophenoxy)acetamido)-N-(2-(2-cyano-4,4-difluoropyrrolidin-1-yl)-2-oxoethyl)isonicotinamide], the half-inhibitory concentration (IC50) is 1 to 10 µM in test [1] (Table 3A); 1 to 10 µM in test [1] (Table 3B); > 10 µM in test [2] (Table 3A); > 10 µM in test [2] (Table 3B); < 1000 nM in test [3] (Table 3B, read-out: rhFAP IC50); < 1000 nM in test [3] (setting [7]). For the same compound, the IC50 in test [3] (setting [8]) and in test [4] was < 1000 nM each time. Further, the inhibition at 1 µM in test [3] (setting [5]) and in test [3] (setting [6]) was > 50% throughout.
For the compound `N#C[C@@H]1CC(F)(F)CN1C(=O)CNC(=O)c1ccncc1Cc1ccccc1F` [Compound 7, (S)—N-(2-(2-cyano-4,4-difluoropyrrolidin-1-yl)-2-oxoethyl)-3-(2-fluorobenzyl)isonicotinamide], the IC50 in test [1] (Table 3A) is > 10 µM; in test [1] (Table 3B) it was > 10 µM; in test [2] (Table 3A) it was 1 to 10 µM; in test [2] (Table 3B) it was 1 to 10 µM; in test [3] (Table 3B, read-out: rhFAP IC50) it was < 1000 nM; in test [3] (setting [7]), < 1000 nM. The IC50 in test [3] (setting [8]) and in test [4] was < 1000 nM each time. The inhibition at 1 µM in test [3] (setting [5]) and in test [3] (setting [6]) was > 50% each time.
As for `N#C[C@@H]1CC(F)(F)CN1C(=O)CNC(=O)c1ccncc1Cc1ccc(F)cc1` [Compound 8, (S)—N-(2-(2-cyano-4,4-difluoropyrrolidin-1-yl)-2-oxoethyl)-3-(4-fluorobenzyl)isonicotinamide], the IC50 in test [1] (Table 3A) is > 10 µM; in test [1] (Table 3B), > 10 µM; in test [2] (Table 3A) it was > 10 µM; in test [2] (Table 3B), > 10 µM; in test [3] (Table 3B, read-out: rhFAP IC50), < 1000 nM; in test [3] (setting [7]) it was < 1000 nM. In addition, the half-inhibitory concentration (IC50) in test [3] (setting [8]) and in test [4] was < 1000 nM throughout. For the same compound, the inhibition at 1 µM in test [3] (setting [5]) and in test [3] (setting [6]) was > 50% each time.
`N#C[C@@H]1CC(F)(F)CN1C(=O)CNC(=O)c1ccncc1/C=C/c1ccc(Cl)cc1` [Compound 9, (S,E)-3-(4-chlorostyryl)-N-(2-(2-cyano-4,4-difluoropyrrolidin-1-yl)-2-oxoethyl)isonicotinamide]: the IC50 in test [1] (Table 3A) is > 10 µM; in test [1] (Table 3B), > 10 µM; in test [2] (Table 3A), > 10 µM; in test [2] (Table 3B) it was > 10 µM; in test [3] (Table 3B, read-out: rhFAP IC50), < 1000 nM; in test [3] (setting [7]) it was < 1000 nM. Also, the IC50 in test [3] (setting [8]) and in test [4] was < 1000 nM in each case. Besides, the inhibition at 1 µM in test [3] (setting [9]) and in test [3] (setting [10]) was > 50% each time.
